Laboratory results taken from PMC12396409, “Screening and hit evaluation of a microbial metabolite library against the pathogenic Plasmodium falciparum and Toxoplasma gondii parasites” (International Journal for Parasitology: Drugs and Drug …, 2025).
Where two headings read alike, the source gives them in different places.

Tests used:
[1] = test system: P. falciparum 3D7 parasites; test: P. falciparum growth inhibition assay, 1-cycle (72 h treatment), SYBR DNA staining (library screen at 2 μg/mL and dose-response); assay type: cell-based, Plasmodium falciparum; details: for activity at 2 µg/mL: Plasmodium falciparum, 3D7, screen at 2 μg/mL
[2] = test system: T. gondii RH strain (RH-Tub-eYFP) tachyzoites; test: microbe, parasite or virus in culture; assay type: cell-based, Toxoplasma gondii; details: for percent parasite growth at 2 µg/mL: Toxoplasma gondii, screen at 2 μg/mL
[3] = test system: P. falciparum 3D7 parasites; test: P. falciparum growth inhibition assay, 2-cycle (120 h treatment), delayed-death screen and dose-response; assay type: cell-based, Plasmodium falciparum; details: for activity at 2 µg/mL: Plasmodium falciparum, 3D7, screen at 2 μg/mL
[4] = P. falciparum 3D7, 72 h, parasite screen at 2 μg/mL, % growth, replicate 1
[5] = P. falciparum 3D7, 72 h, parasite screen at 2 μg/mL, % growth, replicate 2
[6] = T. gondii, 72 h, parasite screen at 2 μg/mL, % growth, replicate 1
[7] = T. gondii, 72 h, parasite screen at 2 μg/mL, % growth, replicate 2
[8] = P. falciparum 3D7, 120 h, parasite screen at 2 μg/mL, % growth, replicate 1
[9] = P. falciparum 3D7, 120 h, parasite screen at 2 μg/mL, % growth, replicate 2
[10] = library screen at 2 μg/mL, 72 h, % growth, replicate 1
[11] = library screen at 2 μg/mL, 72 h, % growth, replicate 2
[12] = library screen at 2 μg/mL, 120 h, % growth, replicate 1
[13] = library screen at 2 μg/mL, 120 h, % growth, replicate 2

`CC1=CCC2CC(CC3(CCC(C)C(C)O3)O2)OC(=O)C2C=C(C)C(=NO)C3OCC(=CC=CC(C)C1)C23O` (stereo not drawn) [BIA-M1531] gave a Pf_72h_%Growth_Rep1 [1, 4] of 53.63%, a Pf_72h_%Growth_Rep2 [1, 5] of 28.47% and a Tg_72h_%Growth_Rep1 [2, 6] of 75.89%. The Tg_72h_%Growth_Rep2 [2, 7] was 79.64%, the Pf_120h_%Growth_Rep1 [3, 8] was 36.91% and the Pf_120h_%Growth_Rep2 [3, 9] was 51.60%.
With `C=C1NC(=O)c2nc(oc2C)C(=C)NC(=O)[C@H](C(C)(C)O)NC(=O)C(=C)NC(=O)c2nc(oc2C)/C(=C/C)NC(=O)[C@H]([C@@H](C)O)NC(=O)c2csc(n2)-c2ccc(C(N)=O)nc2-c2coc(n2)C(=C)NC1=O` [Berninamycin D] the Pf_72h_%Growth_Rep1 [1, 10] was 102.21%, the Pf_72h_%Growth_Rep2 [1, 11] was 89.93% and the Tg_72h_%Growth_Rep1 [2, 10] was 81.74%. It also gave a Tg_72h_%Growth_Rep2 [2, 11] of 94.54%, a Pf_120h_%Growth_Rep1 [3, 12] of 147.66% and a Pf_120h_%Growth_Rep2 [3, 13] of 98.89%.
`Cc1nnc2n1-c1sc(CCC(=O)N3CCOCC3)cc1C(c1ccccc1Cl)=NC2` [WEB 2086] showed an activity at 2 µg/mL ([1]; P. falciparum, 72 h, replicate 1, read-out: Pf_72h_%Growth_Rep1) of 87.3%, an activity at 2 µg/mL ([1]; P. falciparum, 72 h, replicate 2, read-out: Pf_72h_%Growth_Rep2) of 87.4% and a percent parasite growth at 2 µg/mL ([2]; 72 h, T. gondii, 72 h, replicate 1, read-out: Tg_72h_%Growth_Rep1) of 91.8%. The percent parasite growth at 2 µg/mL ([2]; 72 h, T. gondii, 72 h, replicate 2, read-out: Tg_72h_%Growth_Rep2) was 110%, the activity at 2 µg/mL ([3]; P. falciparum, 120 h, replicate 1, read-out: Pf_120h_%Growth_Rep1) was 157% and the activity at 2 µg/mL ([3]; P. falciparum, 120 h, replicate 2, read-out: Pf_120h_%Growth_Rep2) was 84.4%.
For Diacetoxyscirpenol, the Pf_72h_%Growth_Rep1 [1] was 9.42%, the Pf_72h_%Growth_Rep2 [1] was -2.86% and the Tg_72h_%Growth_Rep1 [2] was -1.25%. For the same molecule, the Tg_72h_%Growth_Rep2 [2] was -0.43%, the Pf_120h_%Growth_Rep1 [3] was 13.51% and the Pf_120h_%Growth_Rep2 [3] was -0.91%.
Work on `CC(=O)NCCc1cnc[nH]1` [Acetylhistamine, N-] yielded a Pf_72h_%Growth_Rep1 [1, 10] of 82.83%, a Pf_72h_%Growth_Rep2 [1, 11] of 91.72% and a Tg_72h_%Growth_Rep1 [2, 10] of 95.97%. For the same molecule, the Tg_72h_%Growth_Rep2 [2, 11] was 105.85%, the Pf_120h_%Growth_Rep1 [3, 12] was 90.99% and the Pf_120h_%Growth_Rep2 [3, 13] was 93.21%.
`CC(C)CCC[C@@H](C)[C@@H]1CC[C@]2(C)C3=C(CC[C@@]12C)[C@@]1(C)CC[C@H](O)C(C)(C)[C@@H]1CC3` [Dihydroeuphol] gave a Pf_72h_%Growth_Rep1 [1, 10] of 82.89%, a Pf_72h_%Growth_Rep2 [1, 11] of 91.07% and a Tg_72h_%Growth_Rep1 [2, 10] of 139.10%. The Tg_72h_%Growth_Rep2 [2, 11] was 102.23%, the Pf_120h_%Growth_Rep1 [3, 12] was 82.20% and the Pf_120h_%Growth_Rep2 [3, 13] was 96.98%.
For `COc1c(C)c2c(c(O)c1C/C=C(\C)CCC(=O)O)C(=O)OC2` [BIA-M1207], the Pf_72h_%Growth_Rep1 [1, 4] was 27.32%, the Pf_72h_%Growth_Rep2 [1, 5] was 1.32% and the Tg_72h_%Growth_Rep1 [2, 6] was 1.75%. For the same molecule, the Tg_72h_%Growth_Rep2 [2, 7] was 2.10%, the Pf_120h_%Growth_Rep1 [3, 8] was 16.21% and the Pf_120h_%Growth_Rep2 [3, 9] was 22.24%.
With `CCC(C)C1OC2(CCC1C)CC1CC(CC=C(C)C(OC3CC(OC)C(OC4CC(OC)C(O)C(C)O4)C(C)O3)C(C)C=CC=C3COC4C(O)C(C)C=C(C(=O)O1)C34O)O2` (stereo not drawn) [BIA-I1581] the Pf_72h_%Growth_Rep1 ([1]; P. falciparum 3D7, 72 h, library screen at 2 μg/mL, % growth, replicate 1) was 5.59%, the Pf_72h_%Growth_Rep2 ([1]; P. falciparum 3D7, 72 h, library screen at 2 μg/mL, % growth, replicate 2) was 2.07% and the Tg_72h_%Growth_Rep1 ([2]; T. gondii RH, 72 h, library screen at 2 μg/mL, % growth, replicate 1) was 33.19%. It also gave a Tg_72h_%Growth_Rep2 ([2]; T. gondii RH, 72 h, library screen at 2 μg/mL, % growth, replicate 2) of 43.03%, a Pf_120h_%Growth_Rep1 ([3]; P. falciparum 3D7, 120 h, library screen at 2 μg/mL, % growth, replicate 1) of 16.87% and a Pf_120h_%Growth_Rep2 ([3]; P. falciparum 3D7, 120 h, library screen at 2 μg/mL, % growth, replicate 2) of 11.19%.
`CN(N=O)C(=O)N[C@H]1C(O)O[C@H](CO)[C@@H](O)[C@@H]1O` (mixture of isomers) [Streptozotocin] was tested, and the Pf_72h_%Growth_Rep1 ([1]; P. falciparum, 72 h, parasite screen 2 μg/mL, % growth, replicate 1) was 87.59%, the Pf_72h_%Growth_Rep2 ([1]; P. falciparum, 72 h, parasite screen 2 μg/mL, % growth, replicate 2) was 86.69% and the Tg_72h_%Growth_Rep1 ([2]; T. gondii, 72 h, parasite screen 2 μg/mL, % growth, replicate 1) was 87.36%. For the same molecule, the Tg_72h_%Growth_Rep2 ([2]; T. gondii, 72 h, parasite screen 2 μg/mL, % growth, replicate 2) was 105.65%, the Pf_120h_%Growth_Rep1 ([3]; P. falciparum, 120 h, parasite screen 2 μg/mL, % growth, replicate 1) was 176.62% and the Pf_120h_%Growth_Rep2 ([3]; P. falciparum, 120 h, parasite screen 2 μg/mL, % growth, replicate 2) was 92.69%.
